Laboratory results: ChEMBL document CHEMBL5042500 (J Med Chem, 2022)
≈ marks a conversion by molar mass, not a printed value. Calls of active or inactive are those of the source. The rule behind the calls is not given here.

How the values were obtained:
[1] = Solubility of the compound in FeSSIF at pH 5.0; assay type: physicochemical
Cytochrome P450 3A4 [2] = molecular target: T1, Cytochrome P450 3A4 (Homo sapiens, UniProt P08684); experiment: Inhibition of CYP3A4 in human liver microsomes using testosterone as substrate incubated for 30 mins by LC-MS/MS analysis; assay type: ADME
T1 sequence (P08684 whole entry): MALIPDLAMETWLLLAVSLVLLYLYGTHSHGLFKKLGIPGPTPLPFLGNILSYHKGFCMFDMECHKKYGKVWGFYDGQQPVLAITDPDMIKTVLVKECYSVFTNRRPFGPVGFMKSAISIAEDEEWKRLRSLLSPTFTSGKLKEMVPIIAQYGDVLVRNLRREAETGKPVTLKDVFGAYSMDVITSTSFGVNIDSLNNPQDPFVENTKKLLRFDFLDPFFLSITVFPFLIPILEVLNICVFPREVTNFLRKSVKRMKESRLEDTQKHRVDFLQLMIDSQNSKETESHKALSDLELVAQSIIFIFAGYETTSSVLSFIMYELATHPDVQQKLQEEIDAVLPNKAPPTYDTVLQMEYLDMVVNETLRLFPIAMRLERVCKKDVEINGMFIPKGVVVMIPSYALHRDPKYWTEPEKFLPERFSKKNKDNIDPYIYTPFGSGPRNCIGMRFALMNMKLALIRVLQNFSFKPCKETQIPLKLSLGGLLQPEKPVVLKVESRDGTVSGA

[3] = Metabolic stability in CD1 mouse liver microsomes assessed as compound degradation in presence of NADPH measured after 20 mins; assay type: ADME, Microsome; details: read-out: Drug degradation
[4] = molecular target: T2, Serine/threonine-protein kinase Sgk1 (Homo sapiens, UniProt O00141); experiment: Inhibition of recombinant human SGK1 expressed in baculovirus expression system using 5-carboxyfluorescein -RPRAATF-NH2 as substrate preincubated for 30 mins followed by substrate addition in presence of 10 uM ATP and measured after 60 mins by microfluidics assay
T2 sequence (O00141 whole entry): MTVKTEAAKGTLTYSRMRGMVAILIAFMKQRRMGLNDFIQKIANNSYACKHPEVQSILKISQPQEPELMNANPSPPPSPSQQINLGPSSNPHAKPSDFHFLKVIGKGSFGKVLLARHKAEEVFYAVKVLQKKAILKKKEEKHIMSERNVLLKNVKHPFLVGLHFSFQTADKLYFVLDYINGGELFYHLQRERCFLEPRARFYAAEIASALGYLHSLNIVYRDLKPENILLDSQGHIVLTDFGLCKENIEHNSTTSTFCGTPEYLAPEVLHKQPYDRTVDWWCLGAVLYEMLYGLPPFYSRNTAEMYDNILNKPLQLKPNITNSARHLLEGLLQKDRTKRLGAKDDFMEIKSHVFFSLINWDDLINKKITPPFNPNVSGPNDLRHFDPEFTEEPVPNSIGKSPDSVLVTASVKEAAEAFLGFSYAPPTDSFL

[5] = molecular target: T2, Serine/threonine-protein kinase Sgk1; experiment: Inhibition of recombinant human SGK1 expressed in baculovirus expression system using 5-carboxyfluorescein -RPRAATF-NH2 as substrate preincubated for 30 mins followed by substrate addition in presence of 500 uM ATP and measured after 60 mins by microfluidics assay
[6] = Distribution coefficient, logD of compound at pH 7.4 by chromatographic analysis; assay type: physicochemical; details: octanol/water
[7] = Aqueous solubility of the compound at pH 7.4; assay type: physicochemical
[8] = Effect on chondrocyte hypertrophic differentiation mouse ATDC-5 cells assessed as inhibition of […] gene expression incubated for 2 weeks followed by compound added and every 3 days medium is changed measured after 2 weeks by RT-qPCR analysis; assay type: functional, cell-based
[9] = Permeability in human Caco2 cells at 20 uM incubated for 120 mins by ESI-MS/MS analysis; assay type: ADME, cell-based; details: Caco-2, read-out: permeability
[10] = Chemical stability of the compound at pH 7.4 measured after 24 hrs; assay type: physicochemical; details: buffer, read-out: Stability
[11] = Metabolic stability in human liver microsomes assessed as compound degradation in presence of NADPH measured after 20 mins; assay type: ADME, Microsome; details: read-out: Drug degradation
[12] = Metabolic stability in Sprague-Dawley rat liver microsomes assessed as compound degradation in presence of NADPH measured after 20 mins; assay type: ADME, Microsome; details: read-out: Drug degradation
[13] = Intrinsic clearance in human hepatocytes assessed per 10^-6 cells; assay type: ADME, cell-based, Hepatocyte
Cytochrome P450 3A4 [14] = molecular target: T1, Cytochrome P450 3A4; experiment: Inhibition of CYP3A4 in human liver microsomes using midazolam as substrate incubated for 10 mins by LC-MS/MS analysis; assay type: ADME
CYP3A4 = CYP3A4 (Homo sapiens, UniProt P08684); experiment: Inhibition of CYP3A4 in human liver microsomes by measuring maximum efficacy; assay type: ADME
Chain of CYP3A4 (P08684 whole entry): as the sequence (P08684 whole entry) above

hERG (KCNH2) [15] = molecular target: T3, hERG (KCNH2) (Homo sapiens, UniProt Q12809); experiment: Inhibition of human ERG at 1 uM relative to control; assay type: toxicity
T3 sequence (Q12809 whole entry): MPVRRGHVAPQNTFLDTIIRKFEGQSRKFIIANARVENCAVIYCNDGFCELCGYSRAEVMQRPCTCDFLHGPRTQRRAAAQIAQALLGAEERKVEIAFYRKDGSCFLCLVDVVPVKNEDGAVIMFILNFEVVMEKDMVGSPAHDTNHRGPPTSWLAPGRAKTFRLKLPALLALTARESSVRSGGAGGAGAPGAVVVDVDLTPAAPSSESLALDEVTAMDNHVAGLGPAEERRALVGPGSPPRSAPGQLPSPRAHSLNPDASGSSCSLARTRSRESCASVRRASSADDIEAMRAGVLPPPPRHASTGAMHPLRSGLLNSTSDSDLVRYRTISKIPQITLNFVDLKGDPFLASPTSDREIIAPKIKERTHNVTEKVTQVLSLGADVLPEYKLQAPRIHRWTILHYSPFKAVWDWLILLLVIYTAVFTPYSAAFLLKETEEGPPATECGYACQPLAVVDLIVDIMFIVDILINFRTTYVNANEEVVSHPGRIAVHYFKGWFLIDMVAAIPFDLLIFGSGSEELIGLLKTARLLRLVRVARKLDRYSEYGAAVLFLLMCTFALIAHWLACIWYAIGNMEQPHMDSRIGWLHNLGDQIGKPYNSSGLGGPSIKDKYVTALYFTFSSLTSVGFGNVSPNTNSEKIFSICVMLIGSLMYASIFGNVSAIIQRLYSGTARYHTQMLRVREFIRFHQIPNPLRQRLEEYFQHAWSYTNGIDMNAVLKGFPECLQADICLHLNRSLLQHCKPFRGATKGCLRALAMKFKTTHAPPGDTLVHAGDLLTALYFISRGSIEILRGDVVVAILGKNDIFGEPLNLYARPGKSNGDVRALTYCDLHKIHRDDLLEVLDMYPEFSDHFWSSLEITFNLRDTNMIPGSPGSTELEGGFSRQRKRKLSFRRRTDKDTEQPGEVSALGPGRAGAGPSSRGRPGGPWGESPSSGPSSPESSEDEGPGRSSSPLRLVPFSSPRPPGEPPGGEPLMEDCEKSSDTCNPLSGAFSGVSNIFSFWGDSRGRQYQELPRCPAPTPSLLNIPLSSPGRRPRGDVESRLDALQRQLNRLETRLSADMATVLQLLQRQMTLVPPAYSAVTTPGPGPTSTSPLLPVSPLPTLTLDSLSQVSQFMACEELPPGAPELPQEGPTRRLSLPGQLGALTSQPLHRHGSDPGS

hERG (KCNH2) [16] = molecular target: T3, hERG (KCNH2); experiment: Inhibition of human ERG at 10 uM; assay type: toxicity
Salmonella typhimurium [17] = experiment: Mutagenicity in Salmonella typhimurium […] in presence of S9 fraction by ames test; assay type: toxicity, organism-based; details: salmonella enterica subsp. enterica serovar typhimurium
Salmonella typhimurium [18] = experiment: Mutagenicity in Salmonella typhimurium […] by ames test; assay type: toxicity, organism-based; details: salmonella enterica subsp. enterica serovar typhimurium
[19] = molecular target: T4, Serine/threonine-protein kinase Sgk2 (Homo sapiens, UniProt Q9HBY8); experiment: Inhibition of human SGK2 in presence 500 uM presence of ATP
T4 sequence (Q9HBY8 whole entry): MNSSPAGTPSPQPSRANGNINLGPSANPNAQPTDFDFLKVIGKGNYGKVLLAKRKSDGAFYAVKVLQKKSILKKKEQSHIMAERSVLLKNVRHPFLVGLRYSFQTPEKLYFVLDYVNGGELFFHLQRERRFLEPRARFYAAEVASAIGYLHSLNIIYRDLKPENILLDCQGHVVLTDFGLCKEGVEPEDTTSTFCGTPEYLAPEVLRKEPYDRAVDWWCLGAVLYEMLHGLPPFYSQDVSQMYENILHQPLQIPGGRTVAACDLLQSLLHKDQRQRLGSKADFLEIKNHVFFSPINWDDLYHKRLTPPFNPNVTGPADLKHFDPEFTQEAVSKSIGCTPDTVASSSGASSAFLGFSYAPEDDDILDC

[20] = molecular target: T5, Serine/threonine-protein kinase Sgk3 (Homo sapiens, UniProt Q96BR1); experiment: Inhibition of human SGK3 in presence 500 uM presence of ATP
T5 sequence (Q96BR1 whole entry): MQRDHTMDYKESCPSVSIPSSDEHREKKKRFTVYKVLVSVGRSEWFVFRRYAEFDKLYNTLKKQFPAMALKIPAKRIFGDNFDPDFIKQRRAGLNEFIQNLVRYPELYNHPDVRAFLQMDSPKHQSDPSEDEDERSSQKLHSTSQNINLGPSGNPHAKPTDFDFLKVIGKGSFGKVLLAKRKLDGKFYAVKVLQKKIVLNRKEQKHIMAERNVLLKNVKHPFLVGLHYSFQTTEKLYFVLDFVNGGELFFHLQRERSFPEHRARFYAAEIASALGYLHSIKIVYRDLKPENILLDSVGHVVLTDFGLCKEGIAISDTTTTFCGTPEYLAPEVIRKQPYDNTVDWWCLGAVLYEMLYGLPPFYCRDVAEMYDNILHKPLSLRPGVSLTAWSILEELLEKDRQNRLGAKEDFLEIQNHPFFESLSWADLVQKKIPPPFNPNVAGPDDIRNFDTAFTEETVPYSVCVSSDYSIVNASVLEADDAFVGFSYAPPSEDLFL

[21] = molecular target: T6, Serine/threonine-protein kinase Sgk1 (Mus musculus, UniProt Q9WVC6); experiment: Inhibition of mouse SGK1 in presence 500 uM presence of ATP
T6 sequence (Q9WVC6 whole entry): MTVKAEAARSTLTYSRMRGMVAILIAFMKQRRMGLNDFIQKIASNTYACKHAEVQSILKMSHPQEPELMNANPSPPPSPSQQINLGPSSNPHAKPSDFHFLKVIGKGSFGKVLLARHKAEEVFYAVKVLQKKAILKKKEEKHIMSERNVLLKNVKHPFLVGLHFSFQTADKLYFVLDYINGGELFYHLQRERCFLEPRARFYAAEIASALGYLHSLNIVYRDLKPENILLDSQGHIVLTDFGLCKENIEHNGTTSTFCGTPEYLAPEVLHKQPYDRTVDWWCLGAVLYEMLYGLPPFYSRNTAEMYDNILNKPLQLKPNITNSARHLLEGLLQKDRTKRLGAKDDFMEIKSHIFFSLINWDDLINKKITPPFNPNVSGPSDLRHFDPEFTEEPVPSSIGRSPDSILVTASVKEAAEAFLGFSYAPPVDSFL

[22] = Inhibition of rat SGK1 in presence 500 uM presence of ATP
[23] = Cmax in Sprague-Dawley rat plasma at 30 mg/kg, po; assay type: ADME, organism-based; parameters: route oral, dose 30 mg/kg
[24] = Tmax in Sprague-Dawley rat plasma at 30 mg/kg, po; assay type: ADME, organism-based
[25] = Half life in Sprague-Dawley rat plasma at 30 mg/kg, po; assay type: ADME, organism-based
[26] = AUC (0 to 24 hrs) in Sprague-Dawley rat plasma at 30 mg/kg, po; assay type: ADME, organism-based; parameters: time < 24 hr, route oral, dose 30 mg/kg
[27] = Cmax in Lewis rat plasma at 30 mg/kg, po measured after 8 hrs; assay type: ADME, organism-based; parameters: route oral, time 8 hrs, dose 30 mg/kg
[28] = Tmax in Lewis rat plasma at 30 mg/kg, po measured after 8 hrs; assay type: ADME, organism-based
[29] = AUC (0 to 24 hrs) in Lewis rat plasma at 30 mg/kg, po measured after 8 hrs; assay type: ADME, organism-based; parameters: route oral, dose 30 mg/kg, time 8 hrs
[30] = Cmax in Lewis rat femoral head cartilage at 30 mg/kg, po measured after 8 hrs; assay type: ADME, organism-based, Femur; parameters: route oral, time 8 hrs, dose 30 mg/kg
[31] = Tmax in Lewis rat femoral head cartilage at 30 mg/kg, po measured after 8 hrs; assay type: ADME, organism-based, Femur
[32] = AUC (0 to 24 hrs) in Lewis rat femoral head cartilage at 30 mg/kg, po measured after 8 hrs; assay type: ADME, organism-based, Femur; parameters: route oral, dose 30 mg/kg, time 8 hrs
[33] = Ratio of AUC(0 to 24 hrs) in femoral head to plasma in rat measured after 2 hrs; assay type: ADME, Bone/Plasma; details: read-out: Selectivity ratio
Femur = experiment: Induction of chondrogenesis in femoral head cartilage isolated from C57BL/6 mouse model of osteoarthritis assessed as reduction in intensity of collagen type x staining incubated for 2 weeks in hypertrophic condition and twice for week medium is changed by immunohistochemical staining based analysis; assay type: functional, tissue-based

SMILES	IC50 (Cytochrome P450 3A4 [2]) [nM]	metabolised at 20 min [3] [%]	IC50 [4] [nM]	IC50 [5] [nM]	chromatographic logD [6]	solubility [7] [µg/mL]	IC50 [8] [nM]	Papp at 2 h, 20 µM [9] [×10⁻⁶ cm/s]	remaining at 24 h [10] [%]	metabolised at 20 min [11] [%]	metabolised at 20 min [12] [%]	CLH [13] [mL/h]	IC50 (Cytochrome P450 3A4 [14]) [nM]	Emax (CYP3A4) [%]	inhibition at 1 µM (hERG (KCNH2) [15]) [%]	inhibition at 10 µM (hERG (KCNH2) [16]) [%]	Activity (Salmonella typhimurium [17])	also measured
Cc1n[nH]c2nc(-c3ccc(NS(=O)(=O)c4cc(Cl)ccc4F)cc3)nc(OC3CCN(C4CC4)CC3)c12	> 30000	11	2	4	3.4	< 1	7	5	100	19	4	0.02	> 30000	3	24	5	Non-Toxic	solubility [1]: 17 µg/mL (≈ 30.5 µM); Activity (Salmonella typhimurium [18]): Non-Toxic
N#Cc1ccc(Cl)cc1S(=O)(=O)Nc1ccc(-c2ncc3c(N)n[nH]c3n2)cc1	> 30000	3	3	9	1.13	58 (≈ 136 µM)	550	1.5	100	3	2	0.005	> 30000	17	0	11	Non-Toxic	IC50 [19]: 21 nM; IC50 [20]: 211 nM; IC50 [21]: 294 nM; IC50 [22]: 303 nM; Cmax [23]: 10600 ng/mL; Tmax [24]: 4 h; half-life [25]: 2.8 h; AUC(0-t) at 24 h [26]: 110000 ng·h/mL; Cmax [27]: 2970 ng/mL; Tmax [28]: 4 h; AUC(0-t) at 8 h [29]: 33000 ng·h/mL; Cmax [30]: 890 ng/mL; Tmax [31]: 2 h; AUC(0-t) at 8 h [32]: 5200 ng·h/mL; Kp at 2 h [33]: 0.047; Activity (Femur): Active
